# How the values were obtained:
# Format in all cases: functional
# Streptococcus pneumoniae [1] = assay: Antibacterial activity against Streptococcus pneumoniae R6
# Streptococcus pneumoniae [2] = assay: Antibacterial activity against multidrug resistant Streptococcus pneumoniae serotype 19A URA5805 harboring mutant PBP2B PBP2X and PBP1A
# Streptococcus pneumoniae [3] = assay: Antibacterial activity against multidrug resistant Streptococcus pneumoniae serotype 24F URA5450 harboring mutant PBP2B PBP2X and PBP1A
# Streptococcus pneumoniae [4] = assay: Antibacterial activity against multidrug resistant Streptococcus pneumoniae serotype 23F ATCC 51916 harboring mutant PBP2B PBP2X and PBP1A
# Streptococcus pneumoniae [5] = assay: Antibacterial activity against multidrug resistant Streptococcus pneumoniae serotype 6B URA4566 harboring mutant PBP2B PBP2X and PBP1A
# Streptococcus pneumoniae [6] = assay: Antibacterial activity against Streptococcus pneumoniae serotype 22 URA2542 harboring PBP2B harboring mutant PBP2B PBP2X and PBP1A
# Streptococcus pneumoniae [7] = assay: Antibacterial activity against penicillin-resistant Streptococcus pneumoniae serotype 19A URA3635 harboring mutant PBP2B PBP2X and PBP1A
# Streptococcus pneumoniae [8] = assay: Antibacterial activity against penicillin-cefotaxime- ceftriaxone-resistant Streptococcus pneumoniae URA6056 harboring mutant PBP2B PBP2X and PBP1A
# Streptococcus pneumoniae [9] = assay: Antibacterial activity against multidrug resistant Streptococcus pneumoniae serotype 19F URA3699 harboring mutant PBP2B PBP2X and PBP1A
# Streptococcus pneumoniae [10] = assay: Antibacterial activity against Streptococcus pneumoniae serotype 9V URA4929 harboring mutant PBP1A
# Streptococcus pneumoniae [11] = assay: Antibacterial activity against penicillin-cefotaxime- ceftriaxone-resistant Streptococcus pneumoniae serotype 14 URA3043 harboring mutant PBP2B PBP2X and PBP1A
# Streptococcus pneumoniae [12] = assay: Antibacterial activity against multidrug resistant Streptococcus pneumoniae serotype 23 URA3558 harboring mutant PBP2X and PBP1A
# Streptococcus pneumoniae [13] = assay: Antibacterial activity against penicillin-resistant Streptococcus pneumoniae serotype 14 URA4731 harboring mutant PBP2B PBP2X and PBP1A
# Streptococcus pneumoniae [14] = assay: Antibacterial activity against multidrug resistant Streptococcus pneumoniae serotype 14 URA4203 harboring mutant PBP2B PBP2X and PBP1A
# Streptococcus pneumoniae [15] = assay: Antibacterial activity against penicillin-cefotaxime- ceftriaxone-resistant Streptococcus pneumoniae serotype 14 URA3543 harboring mutant PBP2B PBP2X and PBP1A
# Streptococcus pneumoniae [16] = assay: Antibacterial activity against Streptococcus pneumoniae serotype 3 URA3537 harboring mutant PBP1A
# Streptococcus pneumoniae [17] = assay: Antibacterial activity against Streptococcus pneumoniae URA2543 harboring mutant PBP1A
# Streptococcus pneumoniae [18] = assay: Antibacterial activity against penicillin-resistant Streptococcus pneumoniae serotype 14 URA5128 harboring mutant PBP2B PBP2X and PBP1A
# Streptococcus pneumoniae [19] = assay: Antibacterial activity against erythromycin-resistant Streptococcus pneumoniae serotype 14 URA4933 harboring mutant PBP2X and PBP1A
# Streptococcus pneumoniae [20] = assay: Antibacterial activity against multidrug resistant Streptococcus pneumoniae serotype 6B ATCC 700670 harboring mutant PBP2B PBP2X and PBP1A
# Streptococcus pneumoniae [21] = assay: Antibacterial activity against multidrug resistant Streptococcus pneumoniae serotype 19A ATCC 700673 harboring mutant PBP2B PBP2X and PBP1A
# Streptococcus pneumoniae [22] = assay: Antibacterial activity against multidrug resistant Streptococcus pneumoniae serotype 15A URA5779 harboring mutant PBP2B PBP2X and PBP1A
# Streptococcus pneumoniae [23] = assay: Antibacterial activity against penicillin-resistant Streptococcus pneumoniae serotype 23F URA5391 harboring mutant PBP2B PBP2X and PBP1A
# Streptococcus pneumoniae [24] = assay: Antibacterial activity against Streptococcus pneumoniae serotype 4 ATCC BAA-334 harboring mutant PBP1A
# Streptococcus pneumoniae [25] = assay: Antibacterial activity against tetracycline- erythromycin- clindamycin-resistant Streptococcus pneumoniae serotype 6B URA4376 harboring mutant PBP1A
# Streptococcus pneumoniae [26] = assay: Antibacterial activity against Streptococcus pneumoniae serotype 19F URA4087 harboring mutant PBP2X and PBP1A
smiles,measurement,setting,value
CC1(C)S[C@@H]2[C@H](NC(=O)Cc3ccccc3)C(=O)N2[C@H]1C(=O)O [PENICILLIN G],MIC,Streptococcus pneumoniae [1],0.0125 µg/mL
same,MIC,Streptococcus pneumoniae [2],1.6 µg/mL
same,MIC,Streptococcus pneumoniae [3],0.5 µg/mL
same,MIC,Streptococcus pneumoniae [4],0.1 µg/mL
same,MIC,Streptococcus pneumoniae [5],0.1 µg/mL
same,MIC,Streptococcus pneumoniae [6],0.05 µg/mL
same,MIC,Streptococcus pneumoniae [7],0.1 µg/mL
same,MIC,Streptococcus pneumoniae [8],3.2 µg/mL
same,MIC,Streptococcus pneumoniae [9],0.5 µg/mL
same,MIC,Streptococcus pneumoniae [10],0.0125 µg/mL
same,MIC,Streptococcus pneumoniae [11],2 µg/mL
same,MIC,Streptococcus pneumoniae [12],0.2 µg/mL
same,MIC,Streptococcus pneumoniae [13],0.1 µg/mL
same,MIC,Streptococcus pneumoniae [14],1.6 µg/mL
same,MIC,Streptococcus pneumoniae [15],2 µg/mL
same,MIC,Streptococcus pneumoniae [16],0.0125 µg/mL
same,MIC,Streptococcus pneumoniae [17],0.025 µg/mL
same,MIC,Streptococcus pneumoniae [18],0.5 µg/mL
same,MIC,Streptococcus pneumoniae [19],0.0125 µg/mL
same,MIC,Streptococcus pneumoniae [20],2 µg/mL
same,MIC,Streptococcus pneumoniae [21],2 µg/mL
same,MIC,Streptococcus pneumoniae [22],0.1 µg/mL
same,MIC,Streptococcus pneumoniae [23],0.1 µg/mL
same,MIC,Streptococcus pneumoniae [24],0.0125 µg/mL
same,MIC,Streptococcus pneumoniae [25],0.0125 µg/mL
same,MIC,Streptococcus pneumoniae [26],0.025 µg/mL

# From ChEMBL document CHEMBL1275466, “Diversity of penicillin binding proteins among clinical Streptococcus pneumoniae strains from Portugal” (2008)
